Assay results as given in US12029715B2, “Precursor compounds for providing retinoids of the vitamin A5 pathway and uses thereof” (UNIVERSITY OF DEBRECEN, priority 2015, dated 2024).
Entries after “also recorded” stand apart in the source; their conditions may differ.

Assays:
C57BL/6N mice [1] = experiment: Chronic social defeat stress model, forced swim test; type: in vivo, mouse
Protocol: (§1) The forced swim paradigm was carried out between 1 pm and 4 pm in a 3-litre glass beaker half-filled with water at 22-23° C. (the water depth was 17 cm). All mice were tested only once in this task. To this end, each mouse was lowered gently into the water and the time of immobility was scored during a 6-minute testing period. The mouse was judged immobile when it floated in an upright position and made only small movements to keep its head above the water. After 6 min, the mouse was taken out of the water, left to dry under a red light lamp and returned to its home cage. The immobility scores of each animal were used as an index of despair behavior.
(§2) Social defeat stress procedure was a modified version of the protocol previously described (Berton, McClung et al. 2006). C57BL/6N mice were defeated chronically for 10 consecutive days. Every day they were exposed to the physical contact with an unfamiliar CD1 aggressor in its home cage for maximal interaction time of 5 minutes. After each session of physical stress, C57BL/6N and CD1 mice were separated by a perforated wall and maintained in sensory contact for 24 h. After the last session of stress, mice were transferred into new cages and housed separately throughout the behavioral tests period. C57BL/6N control mice, similarly to the experimental animals, were housed two per cage separated by a metal perforated wall. Every day, they were exposed to the physical contact for 5 minutes.
(§3) For behavioral analysis, 9CDHROL and 9CDHBC were dissolved in ethanol, and then mixed with sunflower oil, so that the final solution contained 3% ethanol. Vehicle treatments consisted of 3% ethanol solution in sunflower oil. For memory studies treatments with 9CDHRA were administered by intraperitoneal injections at volume/weight ratio 3 ml/kg at 7 am and 7 hours before the beginning of testing. For tests with animal model of chronic social defeat, different treatments were administered by intraperitoneal injections at volume/weight ratio 3 ml/kg at 10 mg/kg for each substance between 5-6 pm every second day of stress protocol immediately after the stress session starting from day 1 of the stress protocol.
as §1, with “paradigm (Dalvi and Lucki, 1999)” for “paradigm”, “2-litre” for “3-litre”
as §2, with “(Berton” for “(Berton, McClung”, “C57BL/6N control mice, similarly to the experimental animals, were housed two per cage separated by a metal perforated wall. Every day, they were exposed to the physical contact for 5 minutes.” left out

C57BL/6N mice [2] = experiment: Chronic social defeat stress model, sucrose preference test; type: in vivo, mouse; details: stressed mice; for sucrose preference deficit, treatments during stress protocol: dose not given at the place
From the text: This task, designed to measure hedonic behaviors in mice is based on the palatable nature of sucrose observed in a number of mouse strains. On the first day of the test, sucrose-naive mice were placed in individual cages at 11 am and left there with water and food for habituation period. At 5 pm one water bottle was replaced with two bottles: one containing water and another 0.8% sucrose solution. Three hours later (8 pm) the bottles were weighed to measure liquid consumption and were replaced in cages until morning. The measures of an overnight consumption were then carried out for additional day to evaluate sucrose preference. Mice were not water deprived at any moment, in order to measure spontaneous sucrose preference and exclude any potential emotional confounds induced by stress of water deprivation. The sucrose preference was expressed as the percent of sucrose solution consumed with respect to total liquid consumption.
as §2
as §3, with “by intraperitoneal injections at volume/weight ratio 3 ml/kg at 10 mg/kg for each substance between 5-6 pm every second” left out
This task, designed to measure hedonic behavior in mice (Moreau, 1997), is based on the palatable nature of sucrose observed in a number of mouse strains. On the first day of the test, sucrose-naive mice were placed in individual cages at 11 am and left there with water and food for habituation period. At 5 pm one water bottle was replaced with two bottles: one containing water and another 0.8% sucrose solution. Three hours later (8 pm) the bottles were weighed to measure liquid consumption and were replaced in cages until morning. The measures of an overnight consumption were then carried out for additional day to evaluate sucrose preference. Mice were not water deprived at any moment, in order to measure spontaneous sucrose preference and exclude any potential emotional confounds induced by stress of water deprivation. The sucrose preference was expressed as the percent of sucrose solution consumed with respect to total liquid consumption.
Social defeat stress procedure was a modified version of the protocol previously described (Berton et al. 2006). C57BL/6N mice were defeated chronically for 10 consecutive days. […]

SMILES	immobility time versus stressed, nontreated mice (C57BL/6N mice [1]; 3 mg/kg)	immobility time in the forced swim test (C57BL/6N mice [1]; stressed mice, 1 or 3 mg/kg during the stress protocol)	sucrose preference (anhedonia) (C57BL/6N mice [2]; 1 mg/kg)	sucrose preference deficit, treatments during stress protocol (C57BL/6N mice [2])	immobility time in the forced swim test, compared with 9CDHRA (C57BL/6N mice [1]; stressed mice, UVI2108 during the stress protocol)	immobility time in the forced swim test (C57BL/6N mice [1]; stressed mice, 10 mg/kg i.p. every second day of stress protocol, 10 mg/kg)	sucrose preference (anhedonia) (C57BL/6N mice [2]; 10 mg/kg i.p. every second day of stress protocol, 10 mg/kg)
CC(C=CC1=C(C)CCCC1(C)C)=CC=CC(C)CC(=O)O (stereo not drawn) [9CDHRA, 9-cis-13,14-dihydroretinoic acid]	displayed anti-despair effects	decreased such immobility in stressed mice in a dose dependently manner; also recorded: efficiently normalized immobility time	Anhedonia was abolished	prevented			
CC1(C)CCC(C)(C)c2cc(C3(c4ccc(C(=O)O)cc4)OCCO3)ccc21 [UVI2108, reference compound]				prevented; also recorded: activities similar to 9CDHRA	comparable		
CC1=C(/C=C/C(C)=C\C=C\C(C)CCO)C(C)(C)CCC1 (stereo not drawn) [9CDHROL, 9-cis-13,14-dihydroretinol]						decreased such immobility; also recorded: efficiently normalised immobility time	prevented; also recorded: Anhedonia was abolished
